Values joined by “and” are separate entries in the source; they are usually repeats but may differ in a detail not shown here. Equal entries are not always repeated. “Also recorded” adds a separate entry of the source. Where two headings read alike, the source gives them in different places.
Legend:
Assay type in all cases: cell-based, rat
[1] = test system: total INa (VGSCs naturally expressed on dorsal root ganglion sensory neurons); experiment: Dose–response inhibition of total INa peak, whole-cell patch clamp
[2] = test system: total INa (VGSCs of DRG neurons); experiment: INa inactivation time constants during test pulse, total INa
[3] = test system: TTX-R INa (VGSCs of DRG neurons); details: EUG 2 mM, LID 1 mM
[4] = test system: TTX-R INa (VGSCs of DRG neurons); details: EUG 2 mM, LID 1 mM; remark: listed apart in the source
DRG neuron = experiment: Action potential firing, current clamp; details: EUG 1 mM; 1-ms 1-nA depolarizing current injection
[5] = test system: TTX-R INa (VGSCs of DRG neurons)
[6] = test system: TTX-R INa (VGSCs of DRG neurons); experiment: Voltage dependence of Na+ conductance activation (I-V and G-V curves), TTX-R INa; details: EUG 2 mM
[7] = test system: total INa (VGSCs of DRG neurons); experiment: Steady-state inactivation, 100-ms conditioning pre-pulses, total INa; details: EUG 2 mM, LID 1 mM
[8] = test system: total INa (VGSCs of DRG neurons); experiment: Slow inactivation entry, three-pulse protocol, total INa
[9] = test system: TTX-R INa (VGSCs of DRG neurons); remark: listed apart in the source
[10] = test system: total INa (VGSCs of DRG neurons); experiment: Voltage dependence of Na+ conductance activation (I-V and G-V curves), total INa; details: EUG 2 mM
[11] = test system: total INa (VGSCs of DRG neurons); experiment: Inhibition in depolarization time series at 2 and 5 Hz, total INa; details: EUG 2 mM, LID 1 mM
[12] = test system: persistent total INa (DRG neurons); experiment: Persistent total INa at the end of 50-ms depolarizing pulses; details: EUG 2 mM, LID 1 mM
[13] = test system: TTX-R INa (VGSCs of DRG neurons); experiment: Slow inactivation entry, three-pulse protocol, TTX-R INa
[14] = inhibition at all activating voltages
[15] = individual cells, during exposure to EUG 2 mM or LID 1 mM

## C/C=C\c1ccc(O)c(OC)c1 [IEUG]
[1]; total INa, drug at 3 mM
  Dose response curves' data, Average (fractional current): 0.40
[1]; total INa, drug at 10 mM
  Dose response curves' data, Average (fractional current): 0.02

## C=CCc1ccc(O)c(OC)c1 [EUG, 4-allyl-2-methoxyphenol]
[2]
  Effect on inactivation time constants: unaffected
[3]; 100-ms conditioning pulse
  Shift of the steady-state inactivation curve, on average: −5 mV
[3]
  Max slope-inact: −5.83 ± 0.43 (n = 7) ns mV/e-fold
  V1/2-inact: −36.9 ± 2.48 (n = 7) mV
[3]; individual cells
  Max slope-inact in individual cells: -5.184 mV/efold and -6.728 mV/efold and -5.779 mV/efold and -3.945 mV/efold and -7.158 mV/efold and -6.792 mV/efold and -5.233 mV/efold
  V1/2-inact in individual cells: -28.59 mV and -33.94 mV and -32.48 mV and -34.07 mV and -46.4 mV and -44.79 mV and -37.94 mV
[4]
  Fractional inhibition, 2 Hz, 20th pulse: 0.44 ± 0.064 (n = 6)
  Fractional inhibition, 5 Hz, 20th pulse: 0.49 ± 0.061 (n = 6)
[4]; individual cells
  Fractional current after blockade, 2 Hz, 1st pulse, individual cells: 0.62 and 0.6 and 0.47 and 0.55
  Fractional current after blockade, 2 Hz, 20th pulse, individual cells: 0.56 and 0.48 and 0.36 and 0.46
  Fractional current after blockade, 5 Hz, 1st pulse, individual cells: 0.75 and 0.63 and 0.55 and 0.51
  Fractional current after blockade, 5 Hz, 20th pulse, individual cells: 0.66 and 0.54 and 0.36 and 0.43
DRG neuron
  Effect on action potential firing: promptly inhibits action potential firing; also recorded: prevents neurons from firing action potentials
[5]
  Reversibility of inhibition after drug washout: fully reversible
[5]; drug at 0.1 mM
  Dose response curves' data, Average (fractional current): 0.96
[5]; drug at 0.3 mM
  Dose response curves' data, Average (fractional current): 0.92
[5]; drug at 1 mM
  Dose response curves' data, Average (fractional current): 0.85
[5]; drug at 3 mM
  Dose response curves' data, Average (fractional current): 0.34
[5]; drug at 10 mM
  Dose response curves' data, Average (fractional current): 0.14
[5]; drug at 30 mM
  Dose response curves' data, Average (fractional current): 0.00
[5]; holding −110 mV, test +20 mV
  IC50: 2210 ± 80 µM
[5]; time 15 sec, drug exposure
  Time series of INa blockade, Average (normalized current): 0.62
[5]; time 20 sec, drug exposure
  Time series of INa blockade, Average (normalized current): 0.62
[5]; time 25 sec, drug exposure
  Time series of INa blockade, Average (normalized current): 0.63
[5]; time 30 sec, recovery
  Time series of INa blockade, Average (normalized current): 1.00
[5]; time 35 sec, recovery
  Time series of INa blockade, Average (normalized current): 1.04
[5]; time 40 sec, recovery
  Time series of INa blockade, Average (normalized current): 1.03
[6]; LID 1 mM
  Max slope-act: 6.4 ± 0.4 (n = 7) mV/e-fold
  V1/2-act: −11.5 ± 1.96 (n = 7) ns mV
[6]; [14]
  Effect on reversal potential of the currents: without significantly affecting
[6]; individual cells, LID 1 mM
  Max slope-act in individual cells: 6.818 mV/efold and 6.311 mV/efold and 5.452 mV/efold and 4.894 mV/efold and 8.267 mV/efold and 6.510 mV/efold and 6.698 mV/efold
  V1/2-act in individual cells: -9.916 mV and -13.33 mV and -16.67 mV and -10.24 mV and -5.511 mV and -5.684 mV and -19.13 mV
[7]
  Max slope-inact: −12.2 ± 10.7 (n = 9) ns mV/e-fold
  V1/2-inact: −63.85 ± 2.92 (n = 9) mV
[7]; individual cells
  Max slope-inact in individual cells: -14.8 mV/efold and -10.65 mV/efold and -13.47 mV/efold and -10.21 mV/efold and -17.93 mV/efold and -9.046 mV/efold and -7.985 mV/efold and -14.87 mV/efold and -11.22 mV/efold
  V1/2-inact in individual cells: -63.75 mV and -57.14 mV and -69.63 mV and -55.48 mV and -75.79 mV and -59.29 mV and -57.64 mV and -78.67 mV and -57.24 mV
[8]; EUG 2 mM, LID 1 mM
  Fast inactivation entry time constant: 792.48 ± 298.530 ^ns ms
  Fractional current when P1 = 2 m: 0.82 ± 0.034 ^ns
  Percent fast component (slow inactivation entry): 26.92 ± 4.583 ^ns %
  Slow inactivation entry time constant: 1,142.30 ± 246.525 ^ns
[8]; [15]
  Slow inactivation state entry kinetics of INa, individual cells: 713.90 and 1928.00 and 344.50 and 1032.00 and 1066.00
[1]; EUG at 1.3 mM
  Pre-inhibition of total INa: ~25%
[1]; fast single-cell superfusion, 0.2 Hz time series
  Time to inhibition of INa upon addition: less than 5 s
[1]; total INa
  Reversibility of inhibition after drug washout: fully reversible
[1]; total INa, EUG 0.1 mM in the presence of LID 0.5 mM
  Dose response curves' data, Average (fractional current), EUG (LID 0.5 mM): 0.97
[1]; total INa, EUG 0.3 mM in the presence of LID 0.5 mM
  Dose response curves' data, Average (fractional current), EUG (LID 0.5 mM): 0.85
[1]; total INa, EUG 1 mM in the presence of LID 0.5 mM
  Dose response curves' data, Average (fractional current), EUG (LID 0.5 mM): 0.60
[1]; total INa, EUG 3 mM in the presence of LID 0.5 mM
  Dose response curves' data, Average (fractional current), EUG (LID 0.5 mM): 0.46
[1]; total INa, EUG 10 mM in the presence of LID 0.5 mM
  Dose response curves' data, Average (fractional current), EUG (LID 0.5 mM): 0.10
[1]; total INa, drug at 0.001 mM
  Dose response curves' data, Average (fractional current): 1.00
[1]; total INa, drug at 0.1 mM
  Dose response curves' data, Average (fractional current): 0.98
[1]; total INa, drug at 0.3 mM
  Dose response curves' data, Average (fractional current): 0.93
[1]; total INa, drug at 1 mM
  Dose response curves' data, Average (fractional current): 0.86
[1]; total INa, drug at 3 mM
  Dose response curves' data, Average (fractional current): 0.36
[1]; total INa, drug at 10 mM
  Dose response curves' data, Average (fractional current): 0.07
[1]; total INa, drug at 30 mM
  Dose response curves' data, Average (fractional current): 0.01
[1]; total INa, holding −110 mV, test +20 mV, drug alone
  IC50: 2270 ± 75 µM
[1]; total INa, time 15 sec, drug exposure
  Time series of INa blockade, Average (normalized current): 0.55
[1]; total INa, time 20 sec, drug exposure
  Time series of INa blockade, Average (normalized current): 0.54
[1]; total INa, time 25 sec, drug exposure
  Time series of INa blockade, Average (normalized current): 0.54
[1]; total INa, time 30 sec, recovery
  Time series of INa blockade, Average (normalized current): 0.96
[1]; total INa, time 35 sec, recovery
  Time series of INa blockade, Average (normalized current): 0.99
[1]; total INa, time 40 sec, recovery
  Time series of INa blockade, Average (normalized current): 0.99
[9]
  Effect on inactivation time constants: unaffected
[10]; LID 1 mM
  Max slope-act: 5.4 ± 0.41 (n = 9) mV/e-fold
  V1/2-act: −13.8 ± 2.18 (n = 9) mV
[10]; [14]
  Effect on reversal potential of the currents: without significantly affecting
[10]; individual cells, LID 1 mM
  Max slope-act in individual cells: 5.526 mV/efold and 5.494 mV/efold and 4.967 mV/efold and 6.616 mV/efold and 5.996 mV/efold and 6.156 mV/efold and 4.306 mV/efold and 2.717 mV/efold and 6.496 mV/efold
  V1/2-act in individual cells: -10.73 mV and -7.173 mV and -19.64 mV and -5.137 mV and -8.98 mV and -24.01 mV and -14.91 mV and -13.00 mV and -20.84 mV
[11]
  Fractional inhibition, 2 Hz, 1st pulse: 0.53 ± 0.049 (n = 9)
  Fractional inhibition, 5 Hz, 1st pulse: 0.49 ± 0.056 (n = 8)
[11]; individual cells
  Fractional current after blockade, 2 Hz, 1st pulse, individual cells: 0.40 and 0.52 and 0.58 and 0.37 and 0.28 and 0.50 and 0.730 and 0.29 and 0.53
  Fractional current after blockade, 2 Hz, 20th pulse, individual cells: 0.36 and 0.54 and 0.56 (2×) and 0.34 and 0.15 and 0.49 and 0.74 and 0.26
  Fractional current after blockade, 5 Hz, 1st pulse, individual cells: 0.4 and 0.56 and 0.58 and 0.35
  Fractional current after blockade, 5 Hz, 20th pulse, individual cells: 0.31 (2×) and 0.47 and 0.54
[12]
  Inhibition of persistent total INa after 50-ms depolarization: remarkably inhibited; also recorded: effectively inhibits
[13]; EUG 2 mM, LID 1 mM
  Fast inactivation entry time constant: 76.58 ± 30.563^ns ms
  Fractional current when P1 = 2 m: 0.93 ± 0.028^ns
  Percent fast component (slow inactivation entry): 47.56 ± 16.257^ns %
  Slow inactivation entry time constant: 631.05 ± 282.320^ns
[13]; [15]
  Slow inactivation state entry kinetics of INa, individual cells: 558.80 and 167.30 and 405.40 and 711.30 and 255.80

From article PMC11234063, “Eugenol and lidocaine inhibit voltage-gated Na^+ channels from dorsal root ganglion neurons with different mechanisms” (Frontiers in Pharmacology, 2024)
